Experimental data taken from PubChem BioAssay (NCI).
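The compound was tested at five concentrations on cells cultured in 96-well plates, with a 48-hour exposure period. At the GI50, growth is halved. TGI denotes the concentration required for complete inhibition of growth.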

Legend:
Assay in all cases: growth of human tumour cells (NCI), 48 h
[1] = tested on: OVCAR-5 ovarian
[2] = tested on: HCC-2998 colon
[3] = tested on: HCT-116 colon
[4] = tested on: HT29 colon
[5] = tested on: KM12 colon
[6] = tested on: CAKI-1 renal
[7] = tested on: MALME-3M melanoma
[8] = tested on: SF-268 CNS
[9] = tested on: TK-10 renal
[10] = tested on: SK-MEL-5 melanoma

Structure (SMILES)	TGI [1] [µM]	TGI [2] [µM]	TGI [3] [µM]	TGI [4] [µM]	TGI [5] [µM]	TGI [6] [µM]	TGI [7] [µM]	TGI [8] [µM]	TGI [9] [µM]	TGI [10] [µM]	GI50 [4] [µM]	GI50 [5] [µM]	GI50 [8] [µM]
O=C(O)CCC1(CCC(=O)O)CCCCCCCCC(CCC(=O)O)(CCC(=O)O)C(=O)C1=O	> 100	> 100	> 100	> 100	> 100	> 100	> 100	> 100	> 100	–	–	–	–
COc1cc2c(c(OC)c1)C(=O)C(=O)C(CC1(C)OCCCO1)=C2	37.7	30.1	10.3	35	29.7	13.1	20.4	30.1	17.2	18.1	–	–	–
COc1cc2cnc3c4cc(O)ccc4ccc3c2cc1OC	> 100	> 100	> 100	> 100	> 100	> 100	> 100	> 100	> 100	> 100	–	–	–
CCOC(=O)C1=C(C)C2C3C(=O)OC(=O)C3C1(C)C1C(=O)OC(=O)C21 (centres undefined)	–	> 100	> 100	> 100	> 100	–	> 100	> 100	> 100	> 100	–	–	–
CN(CCO)c1nc(=O)c2c(n1C1OC(CO)C(O)C(O)C1O)CCCC2 (centres undefined)	> 100	> 100	> 100	> 100	> 100	> 100	> 100	> 100	> 100	> 100	–	–	–
N#C/C(=C\c1ccccc1F)C(=O)c1ccccc1	> 100	> 100	> 100	> 100	> 100	> 100	> 100	> 100	> 100	> 100	–	–	–
O=C(N/N=C/c1cc(Cl)cc(Cl)c1[OH2+])c1ccncc1.O=S(=O)([O-])[O-].[Fe+2]	49.8	> 100	29.6	28.6	29.4	–	29.3	> 100	56	> 100	–	–	–
COc1ccc(OC)c(CCc2ccccc2CC(=O)O)c1	> 100	> 100	> 100	> 100	> 100	> 100	> 100	> 100	> 100	> 100	–	–	–
CCC/C=C/C=C\C(=O)O[C@@H]1[C@@H](C)[C@]2(O)[C@@H]3C=C(C)C(=O)[C@H]3CC(COC(C)=O)=C[C@H]2[C@@H]2C(C)(C)[C@]12OC(C)=O	119	58.3	57.5	84.6	106	72.2	86.6	87.7	–	108	–	–	–
N#CCCN(c1ccc(C=Nc2ccc(C(=O)O)cc2)cc1)S(=O)(=O)c1ccccc1	> 100	> 100	> 100	> 100	> 100	> 100	> 100	> 100	> 100	> 100	–	–	–
Cc1cc(N(CCC#N)CCC#N)ccc1/C=C(\N=[N+]=[N-])C(=O)NC(=O)COc1ccccc1	> 100	> 100	> 100	> 100	> 100	> 100	> 100	> 100	> 100	> 100	–	–	–
CCOC(=O)C(C(=O)OCC)S(C)(=O)=O	> 100	> 100	> 100	> 100	> 100	–	> 100	–	> 100	> 100	–	–	–
CC(=O)C(C(=O)C(=O)Nc1cc(Cl)c(Cl)cc1Cl)c1csc(N)n1 (centres undefined)	> 100	> 100	> 100	> 100	> 100	> 100	–	> 100	> 100	> 100	–	–	–
COc1cc(Cn2c3ccccc3c3cc(C)cc(OC)c32)cc2c1[nH]c1ccccc12	> 25	> 25	> 25	> 25	> 25	–	> 25	> 25	> 25	> 25	16.9	10.2	17.5
NCCCC(N)(C(=O)O)C(F)F (centres undefined)	> 4800	> 5000	> 5000	> 5000	> 5000	> 5000	> 5000	> 5000	–	> 5000	–	–	–
CCCCCC1CC(C(C)=O)CN1c1ccc(F)cc1 (centres undefined)	> 100	> 100	> 100	> 100	> 100	–	> 100	> 100	> 100	38.3	–	–	–
Cc1nc2c(n1Cc1ccc(F)cc1)C(=O)c1ccccc1C2=O	–	> 100	> 100	> 100	> 100	–	31.7	> 100	> 100	24.7	–	–	–
O=C(O)C1Cc2[nH]c3ccccc3c2C2CCCC12 (centres undefined)	> 100	> 100	> 100	–	> 100	> 100	> 100	> 100	> 100	> 100	–	–	–
